Values after ≈ are worked out from the molar mass of the structure shown. Values joined by “and” are separate entries in the source; they are usually repeats but may differ in a detail not shown here. Equal values may be shown once. Read-outs that look alike come from different tables or passages of the source. Bridge positions count the residues as written; N and C are the ends. Square brackets hold non-standard residues; d marks the D form. Peptide text beside a SMILES is read from it. * marks the point of attachment. Ileψ(thiazoline)Cys = CC[C@H](C)[C@H](N)C1=N[C@H](C(=O)*)CS1; dOrn = NCCC[C@@H](N)C(=O)O
Key:
Micrococcus uteus = conditions: as obtained from Apothekernes Laboratorium A.S; cited from earlier work
Giardia lamblia = format: cell-based
Protocol: A Portland isolate of G. lamblia was treated with bacitracin and zinc bacitracin according to the procedure of Example IV. An Oxoid HP 11 anaerobic gas chamber and BR 38 gas generating kit were used to produce an anaerobic environment. […] The parasites were incubated in the presence of the treating reagent for 2 4 hours. The viability of the parasites was based on morphology and motility.

Trichomonas vaginalis = Trichomonas vaginalis assay (MLC, aerobic and anaerobic); format: cell-based; conditions: for MLCs: span over metronidazole-sensitive isolates, converted from IU/ml
Protocol: All isolates were treated with either bacitracin or zinc bacitracin.
Prior to being diluted with the medium, the bacitracins were initially solubilized in water to 250 mg/ml. The zinc salt was solubilized in acidified water (60 μl HC1/ml). Duplicate plates of each isolate were prepared. one set of plates was exposed to an aerobic environment; and, the second set was exposed to an anaerobic environment. An Oxoid HP 11 anaerobic gas chamber and BR 38 gas generating kit were used to produce the anaerobic environment.

Tritrichomonas foetus = Tritrichomonas foetus assay (MLC); format: cell-based
Protocol: Duplicate plates of each isolate were prepared. One set of plates was exposed to an aerobic environment; and, the second set was exposed to an anaerobic environment. An Oxoid HP 11 anaerobic gas chamber and BR 38 gas generating kit were used to produce the anaerobic environment. […]

[1] = Portland isolate, anaerobic, 24 hours, two lines of values
[2] = isolate 1031, metronidazole-sensitive, aerobic
[3] = isolate 1031, metronidazole-sensitive, anaerobic
[4] = isolate 1043, metronidazole-sensitive, aerobic
[5] = isolate 1043, metronidazole-sensitive, anaerobic
[6] = isolate 1044, metronidazole-sensitive, aerobic
[7] = isolate 1044, metronidazole-sensitive, anaerobic
[8] = isolate 1064, metronidazole-sensitive, aerobic
[9] = isolate 1064, metronidazole-sensitive, anaerobic
[10] = isolate 1065, metronidazole-sensitive, aerobic
[11] = isolate 1065, metronidazole-sensitive, anaerobic
[12] = isolate 1165, metronidazole-sensitive, aerobic
[13] = isolate 1165, metronidazole-sensitive, anaerobic
[14] = isolate 1910, metronidazole-sensitive, aerobic
[15] = isolate 1910, metronidazole-sensitive, anaerobic
[16] = isolate 6950, metronidazole-sensitive, aerobic
[17] = isolate 6950, metronidazole-sensitive, anaerobic
[18] = isolate 89532.2, metronidazole-insensitive, aerobic
[19] = isolate 89532.2, metronidazole-insensitive, anaerobic
[20] = isolate 90576, metronidazole-insensitive, aerobic
[21] = isolate 90576, metronidazole-insensitive, anaerobic
[22] = isolate CDC85, metronidazole-insensitive, aerobic
[23] = isolate CDC85, metronidazole-insensitive, anaerobic
[24] = isolate IR78, metronidazole-insensitive, aerobic
[25] = isolate IR78, metronidazole-insensitive, anaerobic
[26] = isolate PHLS289, metronidazole-insensitive, aerobic
[27] = isolate PHLS289, metronidazole-insensitive, anaerobic
[28] = isolate STH-1, metronidazole-insensitive, aerobic
[29] = isolate STH-1, metronidazole-insensitive, anaerobic
[30] = isolate UCH-1, metronidazole-sensitive, aerobic
[31] = isolate UCH-1, metronidazole-sensitive, anaerobic
[32] = isolate UCH-2, metronidazole-sensitive, aerobic
[33] = isolate UCH-2, metronidazole-sensitive, anaerobic
[34] = isolate UCH-M1, metronidazole-sensitive, aerobic
[35] = isolate UCH-M1, metronidazole-sensitive, anaerobic
[36] = isolate UOB-1, metronidazole-sensitive, aerobic
[37] = isolate UOB-1, metronidazole-sensitive, anaerobic

**Q.** Which “Potency of the material used” value (Micrococcus uteus) does the source give for CC[C@H](C)[C@H](N)C1=N[C@H](C(=O)N[C@@H](CC(C)C)C(=O)N[C@H](CCC(=O)O)C(=O)N[C@H](C(=O)N[C@H]2CCCCNC(=O)[C@H](CC(N)=O)NC(=O)[C@@H](CC(=O)O)NC(=O)[C@H](Cc3cnc[nH]3)NC(=O)[C@@H](Cc3ccccc3)NC(=O)[C@H]([C@@H](C)CC)NC(=O)[C@@H](CCCN)NC2=O)[C@@H](C)CC)CS1 [Bacitracin, reference compound] ({Ileψ(thiazoline)Cys}-L[dE]IK[dOrn]I[dF]H[dD]N; lactam 4-C) here?
**A.** 70 I.U./mg

**Q.** What about the MICs (Giardia lamblia) of the same compound?
**A.** 28.6 to 35.7 mg/mL

**Q.** What about the “MLC (first of the two columns per drug)” value (Giardia lamblia; [1]) of the same compound?
**A.** 2500 IU/ml and 2000 IU/ml

**Q.** And the “MLC (second of the two columns per drug)” value (Giardia lamblia; [1])?
**A.** > 3500 IU/ml

**Q.** And the MLC (Trichomonas vaginalis; [2])?
**A.** 2000 IU/ml

**Q.** And the MLC (Trichomonas vaginalis; [3])?
**A.** 2000 IU/ml

**Q.** And the MLC (Trichomonas vaginalis; [4])?
**A.** 2500 IU/ml

**Q.** And the MLC (Trichomonas vaginalis; [5])?
**A.** 2000 IU/ml

**Q.** And the MLC (Trichomonas vaginalis; [6])?
**A.** 2000 IU/ml

**Q.** And the MLC (Trichomonas vaginalis; [7])?
**A.** 2000 IU/ml

**Q.** And the MLC (Trichomonas vaginalis; [8])?
**A.** 1500 IU/ml

**Q.** What about the MLC (Trichomonas vaginalis; [9]) of the same compound?
**A.** 1500 IU/ml

**Q.** And the MLC (Trichomonas vaginalis; [10])?
**A.** 2000 IU/ml

**Q.** What about the MLC (Trichomonas vaginalis; [11]) of the same compound?
**A.** 2000 IU/ml

**Q.** And the MLC (Trichomonas vaginalis; [12])?
**A.** 2000 IU/ml

**Q.** What about the MLC (Trichomonas vaginalis; [13]) of the same compound?
**A.** 2000 IU/ml

**Q.** And the MLC (Trichomonas vaginalis; [14])?
**A.** 2000 IU/ml

**Q.** And the MLC (Trichomonas vaginalis; [15])?
**A.** 2000 IU/ml

**Q.** What about the MLC (Trichomonas vaginalis; [16]) of the same compound?
**A.** 2000 IU/ml

**Q.** What about the MLC (Trichomonas vaginalis; [17]) of the same compound?
**A.** 2000 IU/ml

**Q.** And the MLC (Trichomonas vaginalis; [18])?
**A.** 2000 IU/ml

**Q.** What about the MLC (Trichomonas vaginalis; [19]) of the same compound?
**A.** 2000 IU/ml

**Q.** What about the MLC (Trichomonas vaginalis; [20]) of the same compound?
**A.** 2500 IU/ml

**Q.** And the MLC (Trichomonas vaginalis; [21])?
**A.** 2000 IU/ml

**Q.** And the MLC (Trichomonas vaginalis; [22])?
**A.** 1500 IU/ml

**Q.** What about the MLC (Trichomonas vaginalis; [23]) of the same compound?
**A.** 2000 IU/ml

**Q.** What about the MLC (Trichomonas vaginalis; [24]) of the same compound?
**A.** 2000 IU/ml

**Q.** And the MLC (Trichomonas vaginalis; [25])?
**A.** 2000 IU/ml

**Q.** What about the MLC (Trichomonas vaginalis; [26]) of the same compound?
**A.** 2000 IU/ml

**Q.** What about the MLC (Trichomonas vaginalis; [27]) of the same compound?
**A.** 2500 IU/ml

**Q.** What about the MLC (Trichomonas vaginalis; [28]) of the same compound?
**A.** 2000 IU/ml

**Q.** And the MLC (Trichomonas vaginalis; [29])?
**A.** 2000 IU/ml

**Q.** What about the MLC (Trichomonas vaginalis; [30]) of the same compound?
**A.** 2000 IU/ml

**Q.** And the MLC (Trichomonas vaginalis; [31])?
**A.** 2000 IU/ml

**Q.** And the MLC (Trichomonas vaginalis; [32])?
**A.** 2500 IU/ml

**Q.** And the MLC (Trichomonas vaginalis; [33])?
**A.** 2500 IU/ml

**Q.** What about the MLC (Trichomonas vaginalis; [34]) of the same compound?
**A.** 2000 IU/ml

**Q.** And the MLC (Trichomonas vaginalis; [35])?
**A.** 2000 IU/ml

**Q.** And the MLC (Trichomonas vaginalis; [36])?
**A.** 2000 IU/ml

**Q.** What about the MLC (Trichomonas vaginalis; [37]) of the same compound?
**A.** 2000 IU/ml

**Q.** What about the MLCs (Trichomonas vaginalis) of the same compound?
**A.** 21.44-35.71 mg/mi

**Q.** And the MLC (Tritrichomonas foetus; isolate 121, aerobic)?
**A.** 28 mg/mL (≈ 19.7 mM)

**Q.** What about the MLC (Tritrichomonas foetus; isolate 121, anaerobic) of the same compound?
**A.** 28 mg/mL (≈ 19.7 mM)

**Q.** What about the MLC (Tritrichomonas foetus; isolate 138, aerobic) of the same compound?
**A.** 28 mg/mL (≈ 19.7 mM)

**Q.** What about the MLC (Tritrichomonas foetus; isolate 138, anaerobic) of the same compound?
**A.** 28 mg/mL (≈ 19.7 mM)

**Q.** What about the MLC (Tritrichomonas foetus; isolate ATCC 30166, aerobic) of the same compound?
**A.** 28 mg/mL (≈ 19.7 mM)

**Q.** What about the MLC (Tritrichomonas foetus; isolate ATCC 30166, anaerobic) of the same compound?
**A.** 28 mg/mL (≈ 19.7 mM)

**Q.** And the MLC (Tritrichomonas foetus; isolate FT.3741, aerobic)?
**A.** 28 mg/mL (≈ 19.7 mM)

**Q.** What about the MLC (Tritrichomonas foetus; isolate FT.3741, anaerobic) of the same compound?
**A.** 28 mg/mL (≈ 19.7 mM)

**Q.** What about the MLC (Tritrichomonas foetus; isolate S10, aerobic) of the same compound?
**A.** 28 mg/mL (≈ 19.7 mM)

**Q.** And the MLC (Tritrichomonas foetus; isolate S10, anaerobic)?
**A.** 28 mg/mL (≈ 19.7 mM)

**Q.** What about the MLC (Tritrichomonas foetus; isolate TF.7, aerobic) of the same compound?
**A.** 28 mg/mL (≈ 19.7 mM)

**Q.** What about the MLC (Tritrichomonas foetus; isolate TF.7, anaerobic) of the same compound?
**A.** 28 mg/mL (≈ 19.7 mM)

**Q.** What does the source list for Zinc bacitracin?
**A.** Potency of the material used (Micrococcus uteus): 65 I.U./mg; MLC (second of the two columns per drug) (Giardia lamblia; [1]): > 400 IU/ml and 300 IU/ml; MICs (Giardia lamblia; Portland isolate, converted from IU/ml): 2.3 to 6.3 mg/mL; MLC (Trichomonas vaginalis; [2]): 250 IU/ml; MLC (Trichomonas vaginalis; [3]): 350 IU/ml; MLC (Trichomonas vaginalis; [4]): 350 IU/ml; MLC (Trichomonas vaginalis; [5]): 350 IU/ml; MLC (Trichomonas vaginalis; [6]): 250 IU/ml; MLC (Trichomonas vaginalis; [7]): 300 IU/ml; MLC (Trichomonas vaginalis; [8]): 250 IU/ml; MLC (Trichomonas vaginalis; [9]): 300 IU/ml; MLC (Trichomonas vaginalis; [10]): 300 IU/ml; MLC (Trichomonas vaginalis; [11]): 400 IU/ml; MLC (Trichomonas vaginalis; [12]): 350 IU/ml; MLC (Trichomonas vaginalis; [13]): 250 IU/ml; MLC (Trichomonas vaginalis; [14]): 400 IU/ml; MLC (Trichomonas vaginalis; [15]): 350 IU/ml; MLC (Trichomonas vaginalis; [16]): 350 IU/ml; MLC (Trichomonas vaginalis; [17]): 400 IU/ml; MLC (Trichomonas vaginalis; [18]): 350 IU/ml; MLC (Trichomonas vaginalis; [19]): 350 IU/ml; MLC (Trichomonas vaginalis; [20]): 250 IU/ml; MLC (Trichomonas vaginalis; [21]): 350 IU/ml; MLC (Trichomonas vaginalis; [22]): 350 IU/ml; MLC (Trichomonas vaginalis; [23]): 350 IU/ml; MLC (Trichomonas vaginalis; [24]): 300 IU/ml; MLC (Trichomonas vaginalis; [25]): 300 IU/ml; MLC (Trichomonas vaginalis; [26]): 200 IU/ml; MLC (Trichomonas vaginalis; [27]): 250 IU/ml; MLC (Trichomonas vaginalis; [28]): 250 IU/ml; MLC (Trichomonas vaginalis; [29]): 350 IU/ml; MLC (Trichomonas vaginalis; [30]): 400 IU/ml; MLC (Trichomonas vaginalis; [31]): 400 IU/ml; MLC (Trichomonas vaginalis; [32]): 350 IU/ml; MLC (Trichomonas vaginalis; [33]): 400 IU/ml; MLC (Trichomonas vaginalis; [34]): 250 IU/ml; MLC (Trichomonas vaginalis; [35]): 250 IU/ml; MLC (Trichomonas vaginalis; [36]): 400 IU/ml; MLC (Trichomonas vaginalis; [37]): 400 IU/ml; MLCs (Trichomonas vaginalis): 3.13 to 5.47 mg/mL; MLC (Tritrichomonas foetus; isolate 121, aerobic): 6 mg/mL; MLC (Tritrichomonas foetus; isolate 121, anaerobic): 6 mg/mL; MLC (Tritrichomonas foetus; isolate 138, aerobic): 6 mg/mL; MLC (Tritrichomonas foetus; isolate 138, anaerobic): 6 mg/mL; MLC (Tritrichomonas foetus; isolate ATCC 30166, aerobic): 6 mg/mL; MLC (Tritrichomonas foetus; isolate ATCC 30166, anaerobic): 6 mg/mL; MLC (Tritrichomonas foetus; isolate FT.3741, aerobic): 6 mg/mL; MLC (Tritrichomonas foetus; isolate FT.3741, anaerobic): 5 mg/mL; MLC (Tritrichomonas foetus; isolate S10, aerobic): 6 mg/mL; MLC (Tritrichomonas foetus; isolate S10, anaerobic): 6 mg/mL; MLC (Tritrichomonas foetus; isolate TF.7, aerobic): 6 mg/mL; MLC (Tritrichomonas foetus; isolate TF.7, anaerobic): 6 mg/mL
